Laboratory results published in PMC5964640, “Pharmacological effects of N-[2-[[2-[2-[(2,6-dichlorophenyl)amino]phenyl]acetyl]oxy]ethyl]hyaluronamide (diclofenac Etalhyaluronate, SI-613), a novel sodium hyaluronate derivative chemically linked with diclofenac” (BMC Musculoskeletal Disorders, 2018).
Where “and” joins values, the source holds several entries; their conditions need not be identical. Equal values may be shown once.

Tests used:
[1] = Plasma DF concentrations of rabbits with antigen-induced arthritis; type: in vivo, rabbit
Description: Arthritis was induced in the 12 rabbits as described above. Two days after the induction of arthritis, 5 mg/joint SI-613, a mixture of 0.59 mg/joint DF-Na and 5 mg/joint HA (DF-Na + HA), or PBS was administered to the knee joint cavity at a volume of 500 μL/joint. DF-Na was orally administered at a dose of 2 mg/kg. The concentrations of free DF in the synovium and synovial lavage fluid were measured by high performance liquid chromatography coupled with tandem mass spectrometry (LC-MS/MS) at 3 and 72 h after a single IA administration and after a single oral administration of the test materials, respectively. Moreover, plasma concentrations of DF were determined to compare the systemic exposure of DF after the administration of SI-613 with that of the other compounds. The synovium was homogenized in 40-fold volume (40 mL for 1 g tissue) of 10 mM ammonium formate (pH 6.0)/methanol (3:2, v/v) on an ice bath. Then, free DF in the homogenate was extracted with tert-butyl methyl ether-1% acetic acid (6:1, v/v). Free DF in the synovial fluid or plasma was adsorbed to an Oasis HLB cartridge (30 mg/1 cm^3, Waters Corporation, Milford, MA) and eluted with methanol. The internal standard of deuterium-labeled diclofenac (diclofenac-d7) was added to each sample. The extract was loaded onto a CAPCELL PAK C18 MG HPLC column (Shiseido Co. Ltd., Tokyo, Japan, column size: 4.6 mm × 35 mm, particle size: 5 μm) at 40 °C, and eluted with 10 mM ammonium formate (pH 6.0)/methanol (2:3, v/v) at a flow rate of 0.5 mL/minute. For mass detection, we used a QTRAP® 5500 System (AB SCIEX, Framingham, MA) equipped with an electrospray ionization (ESI) source in positive ions in multiple reaction monitoring (MRM) mode. Linear calibration (r > 0.999) was attained at 5–1000 ng/g for the synovium and at 1–200 ng/mL for the synovial fluid and plasma. The extraction efficiencies of diclofenac were 84.2–92.9% for the synovium, 95.2–100.3% for the synovial fluid, and 94.2–96.5% for the plasma.
Time for calculation of area under the DF plasma concentration-time curve (AUC0-t), t (day), was the latest time point at which DF was quantifiable. The half-life (T1/2) was determined by semi-log plotting the data of at least three time points after Tmax.

[2] = system: PGE2 content in the synovial fluid; test: PGE2 content in the synovial fluid of silver nitrate-induced arthritic rats; type: in vivo, rat
Description: In addition, the prostaglandin E2 (PGE2) content, which plays a critical role in inducing inflammation and pain associated with arthritis, was determined in the synovial fluid (SF). Briefly, SI-613 (0.5 mg/joint) or PBS was administered into the joint cavity of the left hindlimb. After assessing the severity of pain, animals were sacrificed by exsanguination under 2% isoflurane anesthesia 1, 2 and 3 days after administration, respectively. The SF was collected by washing the joint cavity with saline (Otsuka Pharmaceutical Factory, Inc.) containing indomethacin (Indacin, MSD K. K., Tokyo, Japan), which was effective to prevent joint puncturing-induced production of PGE2 (unpublished result). The PGE2 content in the SF was measured with a High Sensitivity PGE2 Correlate-EIA kit (Assay Designs Inc., Ann Arbor, MI).

[3] = system: antigen-induced arthritic rabbits; test: Knee joint swelling of antigen-induced arthritic rabbits (long-lasting anti-inflammatory effect); type: in vivo, rabbit; conditions: single IA 5 mg/joint
Description: The duration and efficacy of the anti-inflammatory effect of SI-613 was studied in OVA-induced arthritis rabbits. Two days after the arthritis induction, the knee joint diameter in all 60 rabbits was measured with a digital thickness gauge (Teclock Corp., Nagano, Japan). The joint swelling was expressed as the difference in millimeters between the inflamed (left) and non-inflamed (right) knee joint diameters. The same researcher evaluated the knee joint swelling on all groups on all days. Fifteen animals (knee joint swelling was not more than 7.30 mm) and 5 animals (knee joint swelling was not less than 10.40 mm) were excluded. Forty animals were divided into two groups of 20 animals each by the stratified random sampling method based on the knee joint swelling and body weight of the day, and were administered with 5 mg/joint SI-613 or PBS at a volume of 500 μL/joint into the joint cavities. The knee joint swelling was evaluated the day before (day 0), and on days 1, 3, 7, 14, 21, 28, 35, and 42 after a single injection of the test materials. The knee joint swelling was expressed as the difference in the width of the right and left knee joint.

PGE2 content in the SF = PGE2 content in the SF of rabbits with antigen-induced arthritis; type: in vivo, rabbit; conditions: for production of PGE2 in the SF, group comparison: 72 h after administration
Description: To prepare the anesthetic, saline (2 mL), midazolam (1 mL, 5 mg/mL, Astellas Pharma Inc., Tokyo, Japan), xylazine (2 mL, 0.02 g/mL, Bayer Medical Ltd., Tokyo, Japan), and butorphanol tartrate (1 mL, 5 mg/mL, Meiji Seika Kaisha, Ltd., Tokyo, Japan) were mixed. The anesthetic was administered intravenously to each animal at a volume of 1 mL/body. OVA (Sigma-Aldrich Co., St. Louis, MO) emulsion with Freund's complete adjuvant (FCA; CAPPEL Laboratories Inc., Cochranville, PA) was injected intradermally into the backs of 80 male rabbits at a dose of 5 mg/animal twice at an interval of 13 or 14 days. Twenty-three days after the first immunization, 1% OVA solution was injected in the joint cavities of the left hindlimb at a volume of 500 μL/joint to induce arthritis. […] Animals were sacrificed by exsanguination under 2% isoflurane anesthesia 3 and 72 h after administration, respectively. The SF was collected by washing the joint cavity twice with saline (Otsuka Pharmaceutical Factory, Inc.) containing 20 μg/mL of indomethacin ([…] K. K.) at 3 or 72 h after the administration of the test materials. The PGE2 content in the SF was determined as a mechanism biomarker for the anti-inflammatory effect using a High Sensitivity Prostaglandin E2 Enzyme Immunoassay Kit (Assay Designs Inc.).

[4] = DF in knee tissues after a single IA administration of SI-613, long-term study (LC-MS/MS); type: in vivo, rabbit; conditions: single IA 5 mg/joint
Description: Arthritis was induced in the 24 rabbits as described above. Two days after the induction of arthritis in the rabbits, 5 mg/joint SI-613 or PBS was administered at a volume of 500 μL/joint into the knee joint cavity. Concentrations of DF in the synovium and synovial lavage fluid were measured by LC-MS/MS on days 1, 3, 7, 14, 21, 28, 35, and 42 after a single IA administration.

[5] = Distribution of DF in knee tissues after a single administration, short-term study (LC-MS/MS); type: in vivo, rabbit; conditions: individual animals, free DF
Description: Two days after the induction of arthritis, 5 mg/joint SI-613, a mixture of 0.59 mg/joint DF-Na and 5 mg/joint HA (DF-Na + HA), or PBS was administered to the knee joint cavity at a volume of 500 μL/joint. DF-Na was orally administered at a dose of 2 mg/kg. The concentrations of free DF in the synovium and synovial lavage fluid were measured by high performance liquid chromatography coupled with tandem mass spectrometry (LC-MS/MS) at 3 and 72 h after a single IA administration and after a single oral administration of the test materials, respectively. Moreover, plasma concentrations of DF were determined to compare the systemic exposure of DF after the administration of SI-613 with that of the other compounds. The synovium was homogenized in 40-fold volume (40 mL for 1 g tissue) of 10 mM ammonium formate (pH 6.0)/methanol (3:2, v/v) on an ice bath. Then, free DF in the homogenate was extracted with tert-butyl methyl ether-1% acetic acid (6:1, v/v). Free DF in the synovial fluid or plasma was adsorbed to an Oasis HLB cartridge (30 mg/1 cm^3, Waters Corporation, Milford, MA) and eluted with methanol. The internal standard of deuterium-labeled diclofenac (diclofenac-d7) was added to each sample. The extract was loaded onto a CAPCELL PAK C18 MG HPLC column (Shiseido Co. Ltd., Tokyo, Japan, column size: 4.6 mm × 35 mm, particle size: 5 μm) at 40 °C, and eluted with 10 mM ammonium formate (pH 6.0)/methanol (2:3, v/v) at a flow rate of 0.5 mL/minute. For mass detection, we used a QTRAP® 5500 System (AB SCIEX, Framingham, MA) equipped with an electrospray ionization (ESI) source in positive ions in multiple reaction monitoring (MRM) mode. Linear calibration (r > 0.999) was attained at 5–1000 ng/g for the synovium and at 1–200 ng/mL for the synovial fluid and plasma.

[6] = system: silver nitrate-induced arthritic rats; test: Rat model of silver nitrate-induced arthritic pain (pain score, weight-bearing rate); type: in vivo
Source text: The silver nitrate-induced arthritic pain model is known as a subacute arthritis model, in which the inflammatory response and pain last for at least 3 days following injury. This model involves the activation of prostaglandin pathways and has been used for evaluating the analgesic effects of various NSAIDs or kappa-opioid receptor agonist. Overall, 136 male Sprague-Dawley (SD) rats were obtained from Charles River Laboratories Japan Inc. General anesthesia was maintained by the inhalation of isoflurane (Forane; Dainippon Sumitomo Pharma Co., Ltd., Osaka, Japan). Silver nitrate solution (1%, Wako Pure Chemical Industries, Ltd., Osaka, Japan) at a volume of 50 μL/joint was injected in the knee joint cavity of the left hindlimbs of rats. Animals with no abnormalities were allocated to four groups in each study based on the weight-bearing rate of the inflamed joints and pain score at the time of allocation, by using stratified continuous randomization. Test substances were administered on the day following the arthritis induction. In the first study, SI-613 (contents of DF; 11.8% (w/w), manufactured by Seikagaku Corporation, Tokyo, Japan) at doses of 0.05, 0.15, and 0.5 mg/50 μL/joint (5.9, 17.7, and 59 μg/joint in DF equivalent) or phosphate-buffered saline (PBS) was once injected into the joint cavities of the left hindlimbs for the dose-response assessments.
In the second study, SI-613 (0.5 mg/joint, 59 μg/joint in DF equivalent), HA (0.5 mg/joint, Seikagaku Corporation), a mixture of DF-Na (59 μg/joint, Wako Pure Chemical Industries, Ltd.) and HA (0.5 mg/joint) (DF-Na + HA), or PBS was administered in the same manner for the proof of concept. The doses of DF-Na and HA were set at those of respective components in SI-613 formulation. The DF-Na solution (1 mg/mL) was prepared using the Water for Injection (Otsuka Pharmaceutical Factory, Inc., Tokyo, Japan) and administered orally at a dose of 2 mg/kg (approximately 0.3 mg/body) once daily for 3 days. The oral DF-Na dose, 2 mg/kg, was set in accordance with the dose for adult humans with a body weight of 50 kg, on the assumption that the maximum daily dose in clinical practice administered to patients with OA or rheumatoid arthritis would be 100 mg. It has been reported that DF-Na exerted anti-inflammatory effects in rats when administered at this dose.
Pain was assessed under blinded conditions by scoring pain-related behaviors based on the following criteria and measuring the weight-bearing rates of hindlimbs with a load-measuring device (Tokken Inc., Chiba, Japan) at a same time each day for 3 days after the injection of the test materials.
The criteria for assigning pain scores were as follows: 0; normal, 1; mild claudication with lifting the foot, 2; severe claudication with completely closing the toe, 3; walking on three legs. The weight-bearing rate was calculated using the following formula:
Weight-bearing rate (%) = Mean weight-bearing load on inflamed leg (g) / Body weight (g) × 100.

[7] = sampling point 72 h, oral 2 mg/kg or single IA, 2 mg/kg
[8] = second study, single IA 0.5 mg/joint, compared with PBS, HA, DF-Na + HA or repeated oral DF-Na
[9] = sampling point 72 h, oral 2 mg/kg or single IA

What does the source list for “N-[2-[[2-[2-[(2,6-dichlorophenyl)amino]phenyl]acetyl]oxy]ethyl]hyaluronamide [SI-613]”?
plasma AUC0-t of DF, times smaller than DF-Na + HA group (IA) ([1]; SI-613 IA vs DF-Na + HA IA): 16 times; plasma Cmax of DF, times lower than DF-Na + HA group (IA) ([1]; SI-613 IA vs DF-Na + HA IA): 94 times; plasma AUC0-t of DF, times smaller than DF-Na group (oral) ([1]; SI-613 IA vs DF-Na oral): 187 times; plasma Cmax of DF, times lower than DF-Na group (oral) ([1]; SI-613 IA vs DF-Na oral): 462 times; PGE2 content in the SF vs control ([2]; IA 0.5 mg/joint, days 1, 2 and 3): lower PGE2 content than the control group; PGE2-inhibitory effect, statistical significance vs control ([2]; rat model, 72 h after administration): no statistically significant difference; knee joint swelling compared with the control ([3]; day 1 until day 28): significantly decreased; knee joint swelling compared with the control ([3]; day 35 and day 42): no significant difference; production of PGE2 in the SF, group comparison (PGE2 content in the SF): significantly suppressed; mean amount of DF in the joint cavity lavage fluid ([4]; day 21): 5.940 ng/joint; DF in the joint cavity lavage fluid ([4]; day 28): < 1 ng of DF per mL of synovial lavage fluid; mean DF concentration in the synovium ([4]; day 28): 9.754 ng/g; Concentration of DF Synovial lavage fluid [5, 7]: 60.64 ng/mL fluid and 38.82 ng/mL fluid and 1540 ng/mL fluid; Concentration of DF Synovium [5, 7]: 15.23 ng/g tissue and 45.47 ng/g tissue and 351.1 ng/g tissue; analgesic effect (pain score) ([6]; PGE2 study, IA 0.5 mg/joint, days 1, 2 and 3): confirmed each day; pain behavioral score ([6]; first study, single IA 0.05, 0.15 and 0.5 mg/joint, vs control (PBS), mean of 3 days): improved the pain behavioral scores significantly; weight-bearing rate ([6]; first study, single IA 0.15 and 0.5 mg/joint, vs control, mean of 3 days): significantly increased the weight-bearing rates; pain behavioral score [6, 8]: significantly improved the pain behavioral score; weight-bearing rate [6, 8]: increased the weight-bearing rate

For O=C(O)Cc1ccccc1Nc1c(Cl)cccc1Cl [DF-Na, diclofenac sodium], which AUC(0-inf) ([1]; rabbit, plasma, po, 2 mg/kg, mean ± SD, read-out: AUC0-∞ of DF in plasma) is on record?
Its AUC(0-inf) is 4130 ng·h/mL.

What about the half-life ([1]; rabbit, plasma, po, 2 mg/kg, mean ± SD, read-out: t1/2 of DF in plasma (converted)) of the same compound?
Its half-life is 12.8 h.

And the Tmax ([1]; rabbit, plasma, po, 2 mg/kg, same groups, mean ± SD)?
Its Tmax is 2.4 ± 3.2 h.

What about the AUC(0-t) ([1]; rabbit, plasma, po, 2 mg/kg, t = latest time point at which DF was quantifiable, mean ± SD, read-out: AUC0-t of DF in plasma) of the same compound?
The AUC(0-t) was 4690 ± 1900 ng·h/mL.

What about the Cmax ([1]; rabbit, plasma, DF-Na oral 2 mg/kg, mixture DF-Na 0.59 mg + HA 5 mg/joint IA, SI-613 5 mg/joint IA, mean ± SD) of the same compound?
The Cmax was 621 ± 372 ng/mL.

And the “mean PGE2 content in the SF” value (PGE2 content in the SF; 3 h after administration, DF-Na oral 2 mg/kg)?
Its value is 3767 pg/joint.

What about the “production of PGE2 in the SF compared with the control group” value (PGE2 content in the SF; 3 h after administration, oral 2 mg/kg) of the same compound?
Its value is “significantly suppressed”.

And the “production of PGE2 in the SF, group comparison” value (PGE2 content in the SF)?
The value was “No significant differences”.

And the “Concentration of DF Synovial lavage fluid” value ([5]; sampling point 3 h)?
Its value is 124.6 ng/mL fluid and 58.23 ng/mL fluid and 45.66 ng/mL fluid.

And the “Concentration of DF Synovium” value ([5]; sampling point 3 h)?
The value was 155.8 ng/g tissue and 52.88 ng/g tissue and 75.83 ng/g tissue.

What about the “Concentration of DF Synovial lavage fluid” value [5, 9] of the same compound?
The value was “BLQ2 (< 1 ng of DF per mL of synovial lavage fluid)”.

And the “Concentration of DF Synovium” value [5, 9]?
Its value is “BLQ1 (below limit of quantification, < 5 ng/g)”.
